The values below come from US20140349970A1 (ABBVIE INC., priority 2009, published 2014).

Each structure is given as a SMILES string. A value given as a limit tells only on which side of the number the result lay.

The first assay addresses T1, Syk catalytic domain (aa 356-635 with a C-terminal His-tag) (Homo sapiens, UniProt P43405).
T1 construct: His-tag (C); made in house
Kind of assay: In vitro Syk kinase activity measured by trFRET, Syk catalytic domain.
Details: not given
In kind it is biochemical. The procedure: In Vitro Syk Kinase Activity Measured by Time-Resolved Fluorescence Resonance Energy Transfer (trFRET)
0.14 nM purified Syk catalytic domain (aa 356-635 with a C-terminal His-tag purified in-house by immobilized metal ion affinity chromatography) was mixed with 0.2 μM peptide substrate (biotin-TYR1, Sequence: Biotin-(Ahx)-GAEEEIYAAFFA-COOH) at varying inhibitor concentrations in reaction buffer: 50 mM MOPSO pH 6.5, 10 mM MgCl2, 2 mM MnCl2, 2.5 mM DTT, 0.01% BSA, 0.1 mM Na3VO4 and 0.001 mM ATP. After about 60 min incubation at rt, the reaction was quenched by addition of EDTA (final concentration: 100 mM) and developed by addition of revelation reagents (final approximate concentrations: 30 mM HEPES pH 7.0, 0.06% BSA, 0.006% Tween-20, 0.24 M KF, 80 ng/mL PT66K (europium labeled anti-phosphotyrosine antibody cat #61T66KLB Cisbio, Bedford, Mass.) and 0.6 μg/mL SAXL (Phycolink streptavidin-allophycocyanin acceptor, cat #PJ255, Prozyme, San Leandro, Calif.). The developed reaction was incubated in the dark either at about 4° C. for about 14 h or for about 60 min at rt, then read via a time-resolved fluorescence detector (Rubystar, BMG) using a 337 nm laser for excitation and monitoring emission wavelengths at 665 nm. Within the linear range of the assay, the observed signal at 665 nm was directly related to phosphorylated product and can be used to calculate the IC50 values.
MOPSO buffer contains: 50 mM MOPSO pH 6.5, 10 mM MgCl2, 2 mM MnCl2, 2.5 mM DTT, 0.01% BSA, and 0.1 mM Na3VO4 HEPES buffer contains: 50 mM HEPES pH 7.1, 2.5 mM DTT, 10 mM MgCl2, 2 mM MnCl2, 0.01% BSA, and 0.1 mM Na3VO4 MOPS buffer contains: 20 mM MOPS pH 7.2, 10 mM MgCl2, 5 mM EGTA, 5 mM Beta-phosphoglycerol, 1 mM Na3VO4, 0.01% Triton-X-100 and 1 mM DTT
Biotin-TYR1-peptide sequence: Biotin-(Ahx)-GAEEEIYAAFFA-COOH Biotin-TYR2-peptide sequence: Biotin-(Ahx)-AEEEYFFLFA-amide KinEASE 51 peptides were purchased from Cisbio (cat #62ST0PEB, Bedford, Mass.)
PT66K was purchased from Cisbio (cat #61T66KLB, Bedford, Mass.) EuSTK was purchased from Cisbio (cat #62ST0PEB, Bedford, Mass.) SAXL was purchased from Prozyme (cat #PJ25S, San Leandro, Calif.) Human T-Blasts IL-2 pSTAT5 Cellular Assay
The term IC50 denotes the concentration needed to halve the response being measured. In the case of `Cc1nc(-c2cnn(CC(C)(C)O)c2)c2cnc3[nH]ccc3n12` [AC.1.28], the IC50 lay in the range of 100 to 1000 nM.
On the same count and under the same terms, in the case of `CCCNC(=O)c1ccc(-c2nc(C)n3c2cnc2[nH]ccc23)cc1` [AC.1.29] it was under 100 nM; in that of `Cc1cc(-c2nc(C)n3c2cnc2[nH]ccc23)ccc1N1CCN(C)CC1` [AC.1.30], under 100 nM; in that of `COc1ccc(-c2nc(C)n3c2cnc2[nH]ccc23)s1` [AC.1.31], under 100 nM.
Molecule `CC(=O)c1ccc(-c2nc(C)n3c2cnc2[nH]ccc23)s1` [AC.1.32] gave an IC50 of 100 to 1000 nM.
The same measure, in the same setting: in the case of `Cc1nc(-c2ccc(C3(O)COC3)cc2)c2cnc3[nH]ccc3n12` [AC.1.33] it was 100 to 1000 nM; in that of `Cc1nc(-c2ccc(CO)cc2)c2cnc3[nH]ccc3n12` [AC.1.34], 100 to 1000 nM; in that of `Cc1nc(-c2ccc(CC(C)(C)O)cc2)c2cnc3[nH]ccc3n12` [AC.1.35], 100 to 1000 nM.
For `Cc1nc(-c2ccc(C3(CO)CC3)cc2)c2cnc3[nH]ccc3n12` [AC.1.36], the IC50 was 100 to 1000 nM.
Still for that read-out and setting: as for `COc1ccc(-c2nc(C)n3c2cnc2[nH]ccc23)cc1C` [AC.1.37], the figure is 100 to 1000 nM.
The same measure, in the same setting: in the case of `Cc1nc(-c2ccc(CNS(=O)(=O)C3CC3)cc2)c2cnc3[nH]ccc3n12` [AC.1.38] it was 100 to 1000 nM.
Still for that read-out and setting: in the case of `Cc1nc(-c2cccc(S(C)(=O)=O)c2)c2cnc3[nH]ccc3n12` [AC.1.39] it was 100 to 1000 nM.
Molecule `Cc1nc(-c2ccc(S(=O)(=O)NC3CC3)cc2)c2cnc3[nH]ccc3n12` [AC.1.40] had an IC50 of 100 to 1000 nM.
With `COc1ccc(-c2nc(C)n3c2cnc2[nH]ccc23)cc1OC` [AC.1.41], the IC50 was under 100 nM.
Same read-out and setting: as for `COc1ccc(-c2nc(C)n3c2cnc2[nH]ccc23)cc1Cl` [AC.1.42], the figure is 100 to 1000 nM; as for `COc1cc2c(-c3cc4c(ncc5cnn(C)c54)[nH]3)cn(C)c2cn1` [AC.2.1], under 100 nM.
Molecule `COc1cnc2c(c1)c(-c1cc3c(ncc4cnn(C)c43)[nH]1)cn2C` [AC.2.2] gave an IC50 of under 100 nM.
On the same count and under the same terms, as for `COc1cccc(-c2nc(C3CCCCC3)n3c2cnc2[nH]ccc23)c1` [AC.3.1], the figure is 1000 to 10000 nM.
Same read-out and setting: in the case of `Fc1ccc(-c2nc(C3CCCCC3)n3c2cnc2[nH]ccc23)cc1` [AC.3.2] it was 1000 to 10000 nM; in that of `CC(=O)Nc1cccc(-c2nc(C3CCCCC3)n3c2cnc2[nH]ccc23)c1` [AC.3.3], 100 to 1000 nM.
`CC(=O)c1cccc(-c2nc(C3CCCCC3)n3c2cnc2[nH]ccc23)c1` [AC.3.4] showed an IC50 of 100 to 1000 nM.
The same measure, in the same setting: as for `CC(=O)Nc1ccc(-c2nc(C3CCCCC3)n3c2cnc2[nH]ccc23)cc1` [AC.3.7], the figure is 100 to 1000 nM; as for `Cn1ccc2cc(-c3nc(C4CCCCC4)n4c3cnc3[nH]ccc34)ccc21` [AC.3.8], 100 to 1000 nM; as for `CN1CCN(Cc2ccc(-c3nc(C4CCCCC4)n4c3cnc3[nH]ccc34)cc2)CC1` [AC.3.14], 100 to 1000 nM.
The same measure, in the same setting: as for `NS(=O)(=O)c1ccc(-c2nc(C3CCCCC3)n3c2cnc2[nH]ccc23)cc1` [AC.3.15], the figure is 100 to 1000 nM.
The molecule `c1cnc(-c2nc(C3CCCCC3)n3c2cnc2[nH]ccc23)cn1` [AC.3.16] returned an IC50 of 1000 to 10000 nM.
Same read-out and setting: as for `COCCNC(=O)c1ccc(-c2nc(C3CCCCC3)n3c2cnc2[nH]ccc23)cc1` [AC.3.17], the figure is 100 to 1000 nM.
The same measure, in the same setting: as for `CS(=O)(=O)NCc1ccc(-c2nc(C3CCCCC3)n3c2cnc2[nH]ccc23)cc1` [AC.3.18], the figure is 100 to 1000 nM.
Still for that read-out and setting: as for `CC(=O)NCCc1ccc(-c2nc(C3CCCCC3)n3c2cnc2[nH]ccc23)cc1` [AC.3.19], the figure is 100 to 1000 nM; as for `O=S(=O)(NCCO)c1cccc(-c2nc(C3CCCCC3)n3c2cnc2[nH]ccc23)c1` [AC.3.21], 100 to 1000 nM; as for `CN(C)C(=O)c1ccc(-c2nc(C3CCCCC3)n3c2cnc2[nH]ccc23)cc1` [AC.3.22], 100 to 1000 nM.
`c1cc(-c2nc(C3CCCCC3)n3c2cnc2[nH]ccc23)ccn1` [AC.3.23] came in with an IC50 of 100 to 1000 nM.
The same measure, in the same setting: in the case of `CN(C)CCNC(=O)c1ccc(-c2nc(C3CCCCC3)n3c2cnc2[nH]ccc23)cc1` [AC.3.26] it was 100 to 1000 nM.
Still for that read-out and setting: as for `O=C(c1ccc(-c2nc(C3CCCCC3)n3c2cnc2[nH]ccc23)cc1)N1CCOCC1` [AC.3.28], the figure is 100 to 1000 nM; as for `CN(C)S(=O)(=O)c1ccc(-c2nc(C3CCCCC3)n3c2cnc2[nH]ccc23)cc1` [AC.3.29], 100 to 1000 nM.
Turning to `CC(C)S(=O)(=O)c1ccc(-c2nc(C3CCCCC3)n3c2cnc2[nH]ccc23)cc1` [AC.3.30], the IC50 lay in the range of 100 to 1000 nM.
On the same count and under the same terms, in the case of `Cc1ccc(-c2nc(C3CCCCC3)n3c2cnc2[nH]ccc23)cc1` [AC.3.32] it was 100 to 1000 nM; in that of `CC(C)(CO)c1ccc(-c2ncn3c2cnc2[nH]ccc23)cc1` [AC.4.1], under 100 nM; in that of `OCc1ccc(-c2ncn3c2cnc2[nH]ccc23)cc1` [AC.4.2], 100 to 1000 nM.
On the same count and under the same terms, as for `COc1cc(-c2ncn3c2cnc2[nH]ccc23)ccn1` [AC.4.3], the figure is 100 to 1000 nM; as for `CC(=O)c1cc(-c2ncn3c2cnc2[nH]ccc23)ccn1` [AC.4.4], 100 to 1000 nM.
In turn, `Cc1cc(-c2ncn3c2cnc2[nH]ccc23)ccn1` [AC.4.5] registered an IC50 of 100 to 1000 nM.
Same read-out and setting: in the case of `CC(C)(O)c1ccc(-c2ncn3c2cnc2[nH]ccc23)cc1F` [AC.4.6] it was under 100 nM.
Still for that read-out and setting: in the case of `CCCNC(=O)c1ccc(-c2ncn3c2cnc2[nH]ccc23)cc1` [AC.4.7] it was 100 to 1000 nM; in that of `COc1ccc(-c2ncn3c2cnc2[nH]ccc23)cc1OC` [AC.4.8], under 100 nM; in that of `COc1ccc(-c2ncn3c2cnc2[nH]ccc23)cc1Cl` [AC.4.9], under 100 nM.
Still for that read-out and setting: as for `COc1ccc(-c2ncn3c2cnc2[nH]ccc23)cc1C` [AC.4.10], the figure is under 100 nM; as for `CC(=O)N1CCC[C@@H]1c1nc(-c2ccc(C(C)(C)O)cc2)c2cnc3[nH]ccc3n12` [AC.5.1], 100 to 1000 nM.
`CC(=O)N[C@@H]1C[C@H](c2nc(-c3ccc(C(C)(C)O)cc3)c3cnc4[nH]ccc4n23)N(S(=O)(=O)C2CC2)C1` [AC.5.2] showed an IC50 of 100 to 1000 nM.
The same measure, in the same setting: in the case of `Cc1ncccc1-c1nc(-c2ccc(C(C)(C)O)cc2)c2cnc3[nH]ccc3n12` [AC.5.3] it was 100 to 1000 nM; in that of `CC(C)(O)c1ccc(-c2ncn3c2cnc2[nH]cc(C4=CCNCC4)c23)cc1` [AC.5.4], 1000 to 10000 nM.
Still for that read-out and setting: in the case of `CC(C)(O)c1ccc(-c2nc(CCCN)n3c2cnc2[nH]ccc23)cc1` [AC.5.5] it was 100 to 1000 nM.
On the same count and under the same terms, as for `CC(C)(O)c1ccc(-c2nc(CN)n3c2cnc2[nH]ccc23)cc1` [AC.5.6, 2-(4-(1-(Aminomethyl)-6H-imidazo[1,5-a]pyrrolo[2,3-e]pyrazin-3-yl)phenyl)propan-2-ol], the figure is 1000 to 10000 nM; as for `CC(C)(O)c1ccc(-c2nc(CNC(=O)CO)n3c2cnc2[nH]ccc23)cc1` [AC.5.7], 100 to 1000 nM.
Turning to `CC(C)(O)c1ccc(-c2nc(C3CC3)n3c2cnc2[nH]ccc23)cc1` [AC.5.8], the IC50 is under 100 nM.
The molecule `CC(=O)N1CCC[C@H]1c1nc(-c2ccc(C(C)(C)O)cc2)c2cnc3[nH]ccc3n12` [AC.5.9] had an IC50 of 1000 to 10000 nM.
Same read-out and setting: in the case of `CC(C)(O)c1ccc(-c2nc(C3CCOCC3)n3c2cnc2[nH]cc(C#N)c23)cc1` [AE.1.1] it was 1000 to 10000 nM; in that of `Cc1nc(-c2ccc(CN3CCOCC3)cc2)c2cnc3[nH]ccc3n12` [AH.1.1], 100 to 1000 nM.
In turn, `Cn1ncc2cnc3[nH]c(-c4cccn4CC(=O)O)cc3c21` [AN.1.2, 2-(2-(1-methyl-1,6-dihydropyrazolo[3,4-d]pyrrolo[2,3-b]pyridin-7-yl)-1H-pyrrol-1-yl)acetic acid] registered an IC50 of over 10000 nM.
On to `Cn1cc(-c2cc3c(ncc4cnn(C)c43)[nH]2)c2ccc(C(=O)O)cc21` [AN.1.3], for which the IC50 is under 100 nM.

The assay is the same for the next values; noted with them: Syk catalytic domain (aa 356-635), trFRET, 0.001 mM ATP.
Regarding `CC(C)(O)c1ccc(-c2nc(-c3cccnc3)n3c2cnc2[nH]ccc23)cc1` [AC.6.1], the IC50 was under 100 nM.
On the same count and under the same terms, as for `COc1ccc(-c2nn(C)c3c2cnc2[nH]cc(Br)c23)cc1` [AK.1, 8-Bromo-3-(4-methoxyphenyl)-1-methyl-1,6-dihydropyrazolo[3,4-d]pyrrolo[2,3-b]pyridine], the figure is under 100 nM; as for `Cn1cc(-c2cc3c(ncc4cnn(C)c43)[nH]2)c2cc(C(=O)O)ccc21` [AN.1, 1-Methyl-3-(1-methyl-1,6-dihydropyrazolo[3,4-d]pyrrolo[2,3-b]pyridin-7-yl)-1H-indole-5-carboxylic acid], under 100 nM.
